# Patent US20240109917A1 (ACTELION PHARMACEUTICALS LTD, priority 2020, published 2024)
# Key:
# [1] = biological target: His6-TEV-PDGFRβ (557-1016) (Homo sapiens (Human), UniProt P09619); experiment: PDGFRβ HTRF Assay; type: biochemical; conditions: read-out: PDGFR HTRF IC50
# In short: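 HTRF KinEASE-TK readout (665/620 nm ratio) of TK-biotin substrate phosphorylation by His-tagged PDGFRβ kinase domain. Enzyme and inhibitor preincubated 30 min, then ATP/substrate added for 3 h at room temperature before 60 min EDTA quench/detection.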
# [2] = biological target: Tb-labeled inactive PDGFRβ (Homo sapiens (Human), UniProt P09619); experiment: PDGFRβ LanthaScreen Assay; type: binding; conditions: read-out: PDGFR Lantha IC50
# Sequence of Tb-labeled inactive PDGFRβ (P09619 33-1106): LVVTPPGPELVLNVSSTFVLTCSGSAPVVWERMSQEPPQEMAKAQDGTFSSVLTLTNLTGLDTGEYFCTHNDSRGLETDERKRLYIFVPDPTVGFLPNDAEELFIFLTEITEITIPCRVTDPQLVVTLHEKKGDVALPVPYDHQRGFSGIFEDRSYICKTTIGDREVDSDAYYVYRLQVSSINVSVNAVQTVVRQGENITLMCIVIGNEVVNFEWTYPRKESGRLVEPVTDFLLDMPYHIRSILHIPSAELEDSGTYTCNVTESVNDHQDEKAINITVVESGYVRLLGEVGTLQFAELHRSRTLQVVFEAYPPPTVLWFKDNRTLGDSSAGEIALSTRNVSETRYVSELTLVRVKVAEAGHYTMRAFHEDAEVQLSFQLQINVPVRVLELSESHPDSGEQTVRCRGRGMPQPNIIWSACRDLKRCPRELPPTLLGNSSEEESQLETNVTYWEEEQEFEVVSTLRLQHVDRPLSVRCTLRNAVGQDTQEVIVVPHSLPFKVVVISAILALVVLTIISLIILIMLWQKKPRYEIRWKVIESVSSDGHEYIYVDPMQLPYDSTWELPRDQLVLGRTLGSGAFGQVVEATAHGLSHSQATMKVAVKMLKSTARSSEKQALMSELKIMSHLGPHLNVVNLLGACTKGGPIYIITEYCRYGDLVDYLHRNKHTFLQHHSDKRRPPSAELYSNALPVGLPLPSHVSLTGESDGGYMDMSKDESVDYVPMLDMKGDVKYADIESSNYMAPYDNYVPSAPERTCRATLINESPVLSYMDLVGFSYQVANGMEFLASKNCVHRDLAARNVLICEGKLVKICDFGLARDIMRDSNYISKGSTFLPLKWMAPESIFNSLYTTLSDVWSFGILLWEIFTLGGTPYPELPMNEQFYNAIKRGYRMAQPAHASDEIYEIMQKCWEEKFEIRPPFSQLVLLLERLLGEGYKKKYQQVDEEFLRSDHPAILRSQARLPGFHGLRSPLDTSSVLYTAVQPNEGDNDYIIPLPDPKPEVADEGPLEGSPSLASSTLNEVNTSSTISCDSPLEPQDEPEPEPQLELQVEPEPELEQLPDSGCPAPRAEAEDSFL
# Sequence of His6-TEV-PDGFRβ (557-1016) (P09619 557-1016): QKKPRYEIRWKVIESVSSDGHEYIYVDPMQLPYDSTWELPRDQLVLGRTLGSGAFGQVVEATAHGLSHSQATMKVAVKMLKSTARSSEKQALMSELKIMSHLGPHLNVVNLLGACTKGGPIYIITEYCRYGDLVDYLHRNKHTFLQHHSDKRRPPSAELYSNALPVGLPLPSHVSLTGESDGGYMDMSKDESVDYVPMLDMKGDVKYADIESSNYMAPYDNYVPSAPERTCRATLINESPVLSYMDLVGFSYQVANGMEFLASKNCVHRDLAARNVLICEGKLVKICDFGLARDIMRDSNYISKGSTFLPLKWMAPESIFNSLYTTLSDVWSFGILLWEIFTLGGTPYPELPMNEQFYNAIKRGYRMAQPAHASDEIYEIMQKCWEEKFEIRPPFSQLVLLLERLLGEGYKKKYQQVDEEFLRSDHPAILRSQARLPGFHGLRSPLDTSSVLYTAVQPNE
SMILES,IC50 [1] [nM],IC50 [2] [nM]
"Cc1ncc(NC(=O)CNCC2CC2)cc1NC(=O)c1cnn2cc(-c3cnn4c3OCCC4)sc12 [Example 453, N-(5-(2-((cyclopropylmethyl)amino)acetamido)-2-methylpyridin-3-yl)-2-(6,7-dihydro-5H-pyrazolo[5,1-b][1,3]oxazin-3-yl)pyrazolo[5,1-b]thiazole-7-carboxamide]",0.6,5.8
"Cc1ncc(NC(=O)CN2C[C@@H](C)O[C@H](C)C2)cc1NC(=O)c1cnn2cc(-c3cnn(CCS(C)(=O)=O)c3)sc12 (relative stereo) [Example 432, N-(5-(2-(trans-2,6-dimethylmorpholino)acetamido)-2-methylpyridin-3-yl)-2-(1-(2-(methylsulfonyl)ethyl)-1H-pyrazol-4-yl)pyrazolo[5,1-b]thiazole-7-carboxamide]",1.1,9.2
"COCCn1cc(-c2cn3ncc(C(=O)Nc4cc(NC(=O)CN5CCC5C(C)C)cnc4C)c3s2)cn1 (stereo not drawn) [Example 467, N-(5-(2-(2-isopropylazetidin-1-yl)acetamido)-2-methylpyridin-3-yl)-2-(1-(2-methoxyethyl)-1H-pyrazol-4-yl)pyrazolo[5,1-b]thiazole-7-carboxamide]",0.4,3
"Cc1ncc(NC(=O)CNC2CCCC2)cc1NC(=O)c1cnn2cc(-c3cnn4c3OCCC4)sc12 [Example 421, N-(5-(2-(cyclopentylamino)acetamido)-2-methylpyridin-3-yl)-2-(6,7-dihydro-5H-pyrazolo[5,1-b][1,3]oxazin-3-yl)pyrazolo[5,1-b]thiazole-7-carboxamide]",0.2,2
"Cc1ncc(NC(=O)CN2CCCC2(C)C)cc1NC(=O)c1cnn2cc(-c3cccnc3OCCF)sc12 [Example 448, N-(5-(2-(2,2-dimethylpyrrolidin-1-yl)acetamido)-2-methylpyridin-3-yl)-2-(2-(2-fluoroethoxy)pyridin-3-yl)pyrazolo[5,1-b]thiazole-7-carboxamide]",0.2,1.8
"Cc1ncc(C(=O)NCCN2CC3CCC2CC3)cc1NC(=O)c1cnn2cc(-c3cnn4c3CCC4)sc12 [Example 480, N-(5-((2-(2-azabicyclo[2.2.2]octan-2-yl)ethyl)carbamoyl)-2-methylpyridin-3-yl)-2-(5,6-dihydro-4H-pyrrolo[1,2-b]pyrazol-3-yl)pyrazolo[5,1-b]thiazole-7-carboxamide]",0.3,2.5
"CCOc1ncccc1-c1cn2ncc(C(=O)Nc3cc(NC(=O)CN4CC(C)(C)C4)cnc3C)c2s1 [Example 436, N-(5-(2-(3,3-Dimethylazetidin-1-yl)acetamido)-2-methylpyridin-3-yl)-2-(2-ethoxypyridin-3-yl)pyrazolo[5,1-b]thiazole-7-carboxamide]",0.1,0.9
"Cc1ncc(NC(=O)CNC2CCC2)cc1NC(=O)c1cnn2cc(-c3cnn4c3CCC4)sc12 [Example 471, N-(5-(2-(cyclobutylamino)acetamido)-2-methylpyridin-3-yl)-2-(5,6-dihydro-4H-pyrrolo[1,2-b]pyrazol-3-yl)pyrazolo[5,1-b]thiazole-7-carboxamide]",0.1,1
"Cc1ncc(NC(=O)CN2CCCC2(C)C)cc1NC(=O)c1cnn2cc(-c3cnn4c3COCC4)sc12 [Example 458, 2-(6,7-dihydro-4H-pyrazolo[5,1-c][1,4]oxazin-3-yl)-N-(5-(2-(2,2-dimethylpyrrolidin-1-yl)acetamido)-2-methylpyridin-3-yl)pyrazolo[5,1-b]thiazole-7-carboxamide]",0.3,1.7
"Cc1ncc(NC(=O)CN2CCCC2(C)C)cc1NC(=O)c1cnn2cc(-c3cnn(CCO)c3)sc12 [Example 447, N-(5-(2-(2,2-dimethylpyrrolidin-1-yl)acetamido)-2-methylpyridin-3-yl)-2-(1-(2-hydroxyethyl)-1H-pyrazol-4-yl)pyrazolo[5,1-b]thiazole-7-carboxamide]",0.5,3.7
"Cc1ncc(NC(=O)CNCC2CC2)cc1NC(=O)c1cnn2cc(-c3cnn4c3CCC4)sc12 [Example 454, N-(5-(2-((cyclopropylmethyl)amino)acetamido)-2-methylpyridin-3-yl)-2-(5,6-dihydro-4H-pyrrolo[1,2-b]pyrazol-3-yl)pyrazolo[5,1-b]thiazole-7-carboxamide]",0.4,4.6
"Cc1cc(C(=O)NCCN2CCCC23CCC3)sc1NC(=O)c1cnn2cc(-c3cnn(C)c3)sc12 [Example 35, N-(5-((2-(5-azaspiro[3.4]octan-5-yl)ethyl)carbamoyl)-3-methylthiophen-2-yl)-2-(1-methyl-1H-pyrazol-4-yl)pyrazolo[5,1-b]thiazole-7-carboxamide]",1.6,71.4
"COCCn1cc(-c2cn3ncc(C(=O)Nc4cc(NC(=O)C5(CN6CCC[C@@H]6C)CC5)cnc4C)c3s2)cn1 [Example 452, (S)-2-(1-(2-methoxyethyl)-1H-pyrazol-4-yl)-N-(2-methyl-5-(1-((2-methylpyrrolidin-1-yl)methyl)cyclopropanecarboxamido)pyridin-3-yl)pyrazolo[5,1-b]thiazole-7-carboxamide]",12.1,376
"Cc1ncc(NC(=O)CN2CC(C)(C)C2)cc1NC(=O)c1cnn2cc(-c3ccnnc3C)sc12 [Example 410, N-(5-(2-(3,3-dimethylazetidin-1-yl)acetamido)-2-methylpyridin-3-yl)-2-(3-methylpyridazin-4-yl)pyrazolo[5,1-b]thiazole-7-carboxamide]",6.2,190
"COC1CN(CC(=O)Nc2cnc(C)c(NC(=O)c3cnn4cc(-c5cn(C)nc5C)sc34)c2)C1 [Example 441, 2-(1,3-Dimethyl-1H-pyrazol-4-yl)-N-(5-(2-(3-methoxyazetidin-1-yl)acetamido)-2-methylpyridin-3-yl)pyrazolo[5,1-b]thiazole-7-carboxamide]",0.7,19.7
"Cc1ncc(NC(=O)CNC2CCCC2)cc1NC(=O)c1cnn2cc(-c3cnn4c3CCC4)sc12 [Example 422, N-(5-(2-(cyclopentylamino)acetamido)-2-methylpyridin-3-yl)-2-(5,6-dihydro-4H-pyrrolo[1,2-b]pyrazol-3-yl)pyrazolo[5,1-b]thiazole-7-carboxamide]",0.2,1.1
"Cc1ncc(C(=O)NCCN2CCCC2(C)C)cc1NC(=O)c1cnn2cc(-c3cnn4c3OCCC4)sc12 [Example 460, 2-(6,7-dihydro-5H-pyrazolo[5,1-b][1,3]oxazin-3-yl)-N-(5-((2-(2,2-dimethylpyrrolidin-1-yl)ethyl)carbamoyl)-2-methylpyridin-3-yl)pyrazolo[5,1-b]thiazole-7-carboxamide]",0.3,1.6
"COCCn1cc(-c2cn3ncc(C(=O)Nc4cc(NC(=O)C[C@@H]5CCCN5C(C)C)cnc4C)c3s2)cn1 [Example 451, (S)—N-(5-(2-(1-isopropylpyrrolidin-2-yl)acetamido)-2-methylpyridin-3-yl)-2-(1-(2-methoxyethyl)-1H-pyrazol-4-yl)pyrazolo[5,1-b]thiazole-7-carboxamide]",0.8,16.1
